Among the test systems are NCI/ADR-RES; U-251; NCI-H23; OVCAR-3; SK-MEL-5; OVCAR-4; RXF 393; SK-MEL-2; SR; HOP-92; HOP-62; HCT-15; SNB-75; HCT-116; TK-10; NCI-H522; SW-620; CCRF-CEM; Malme-3M.
Assay in all cases: NCI-60 cell line screen, 48 h

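All cell lines were grown in 96-well plates and treated with compound for 48 hours. Here, GI50 denotes the concentration required for 50% inhibition of growth.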 Activity calls are given as the source filed them. Rule as the data show it: active = GI50 up to about 1.1 µM and inactive = higher.

Here are results for 11 compounds from ChEMBL document CHEMBL1201862, “PubChem BioAssay data set” (2004).

Turning to `CC(C)Oc1cc(O)c2c(c1)OCC=C2CCC(=O)O`, the GI50 with NCI/ADR-RES was 28.4 µM (inactive); in the test on U-251, 67.1 µM (inactive); with NCI-H23 it was 37.2 µM (inactive); in the test on OVCAR-3 it was 41 µM (inactive); in the test with SK-MEL-5 it was 18.4 µM (inactive); in the test on OVCAR-4, 39.3 µM (inactive). In addition, the GI50 in the test with RXF 393 was 69.5 µM (inactive); in the test on SK-MEL-2, 26.8 µM (inactive); in the test with SR, 34 µM (inactive); in the test with HOP-92, 20 µM (inactive); in the test with HOP-62, 30.5 µM (inactive); with HCT-15 it was 23.2 µM. The GI50 in the test with SNB-75 was 31 µM (inactive); in the test on HCT-116, 20.4 µM (inactive); in the test with TK-10 it was 20.3 µM (inactive); in the test on NCI-H522, 21.2 µM (inactive); in the test on SW-620, 27.8 µM (inactive); in the test with CCRF-CEM, 22.8 µM (inactive).
On to `O=C(c1ccccc1)c1c(C(F)(F)F)[n+]([O-])c2cc(F)c(F)cc2[n+]1[O-]`, for which the GI50 in the test with NCI/ADR-RES is 0.367 µM (active); in the test with U-251, 0.377 µM (active); with NCI-H23 it was 0.211 µM (active); in the test on OVCAR-3 it was 0.653 µM (active); in the test with SK-MEL-5, 0.877 µM (active); in the test on OVCAR-4, 2.07 µM (inactive). Moreover, the GI50 in the test with RXF 393 is 1 µM (active); in the test with SK-MEL-2, 1.79 µM (inactive); in the test with Malme-3M, 0.161 µM (active); with SR it was < 0.01 µM (active); in the test on HOP-92, 0.238 µM (active); in the test on HOP-62 it was 1.25 µM (inactive). The GI50 in the test with HCT-15 was 0.49 µM; in the test on SNB-75, 1.95 µM (inactive); in the test on HCT-116, 0.156 µM (active); in the test with TK-10, 0.195 µM (active); in the test with NCI-H522 it was 0.746 µM (active); with SW-620, 0.499 µM (active).
For `Cn1c(S)nnc1-c1csc(-c2ccc(Cl)cc2)n1`, the GI50 in the test with NCI/ADR-RES was 25.2 µM (inactive); in the test on U-251 it was > 10 µM (inactive); with NCI-H23 it was 15 µM (inactive); in the test with OVCAR-3 it was 19.1 µM (inactive); in the test with SK-MEL-5, > 100 µM (inactive); in the test on OVCAR-4, 26.1 µM (inactive). Also, the GI50 is 19 µM (inactive) in the test on RXF 393; 30.3 µM (inactive) in the test on Malme-3M; > 100 µM (inactive) in the test on SR; 12 µM (inactive) in the test on HOP-92; 15.4 µM (inactive) with HOP-62; 53.8 µM in the test on HCT-15. For the same compound, the GI50 was 18.7 µM (inactive) with SNB-75; 17.7 µM (inactive) in the test on HCT-116; 20.4 µM (inactive) in the test on TK-10; 19.4 µM (inactive) with NCI-H522; 32.6 µM (inactive) in the test with SW-620; > 100 µM (inactive) in the test with CCRF-CEM.
Regarding `O=C1NNC2(C(=O)N1)c1ccccc1-c1ccccc12`, the GI50 with NCI/ADR-RES, in the test on NCI-H23, with SK-MEL-5, in the test with OVCAR-4, with RXF 393 and in the test with Malme-3M was > 10 µM (inactive) in each case. Besides, the GI50 is > 10 µM (inactive) in the test on SR; > 10 µM (inactive) in the test on HOP-92; > 10 µM (inactive) with HOP-62; > 10 µM in the test with HCT-15; > 10 µM (inactive) in the test with SNB-75; > 10 µM (inactive) in the test with HCT-116. Also, the GI50 in the test with TK-10, with NCI-H522, in the test with SW-620 and in the test on CCRF-CEM was > 10 µM (inactive) in each case.
`COC(=O)c1c2c(cc3c1CC1(Cc4ccc(C(C)=O)cc4C1)C3)CCC2` (configuration not stated): the GI50 is 21.3 µM (inactive) with NCI/ADR-RES; 50.7 µM (inactive) with U-251; 46.5 µM (inactive) in the test on NCI-H23; > 100 µM (inactive) in the test with OVCAR-3; 18 µM (inactive) in the test with SK-MEL-5; 41.4 µM (inactive) in the test with OVCAR-4. The GI50 is 20.2 µM (inactive) with RXF 393; 15.7 µM (inactive) in the test on Malme-3M; 20.7 µM (inactive) in the test with SR; 93.3 µM (inactive) in the test on HOP-92; 91.2 µM (inactive) in the test with HOP-62; 31.8 µM in the test on HCT-15. Moreover, the GI50 in the test with SNB-75 was 30.4 µM (inactive); with HCT-116 it was 36.3 µM (inactive); with TK-10, > 100 µM (inactive); in the test with NCI-H522, 21 µM (inactive); in the test on SW-620, 28.3 µM (inactive); in the test with CCRF-CEM it was 27.7 µM (inactive).
Consider `COc1ccc(C(c2ccc(OC)cc2)N2C(=O)CCC2C(=O)O)cc1` (configuration not stated), for which the GI50 in the test with NCI/ADR-RES, in the test on U-251, in the test with NCI-H23, in the test on OVCAR-3, with SK-MEL-5 and with OVCAR-4 was > 100 µM (inactive) throughout. Moreover, the GI50 was > 100 µM (inactive) in the test on SK-MEL-2; > 100 µM (inactive) in the test on Malme-3M; > 100 µM (inactive) in the test with SR; > 100 µM (inactive) with HOP-92; > 100 µM (inactive) in the test with HOP-62; > 100 µM in the test on HCT-15. In addition, the GI50 in the test with SNB-75, in the test with HCT-116, with TK-10, in the test on NCI-H522, in the test on SW-620 and with CCRF-CEM was > 100 µM (inactive) in each case.
For the compound `Cc1coc2c1[C@@H](O)[C@@]1(C)[C@H](CCC[C@@H]1C)C2`, the GI50 is 24.8 µM (inactive) in the test with NCI/ADR-RES; 50.9 µM (inactive) in the test with NCI-H23; 23.9 µM (inactive) in the test with OVCAR-3; 49.9 µM (inactive) with SK-MEL-5; 58.7 µM (inactive) in the test on OVCAR-4; 18.2 µM (inactive) in the test with RXF 393. Besides, the GI50 in the test on Malme-3M was 30 µM (inactive); with SR, 21.6 µM (inactive); in the test with HOP-92 it was 51.2 µM (inactive); with HOP-62, 40.5 µM (inactive); in the test on HCT-15, 23.8 µM; in the test on HCT-116, 33.5 µM (inactive). For the same compound, the GI50 with TK-10 is > 100 µM (inactive); with NCI-H522 it was 25.3 µM (inactive); in the test with SW-620, 37.8 µM (inactive); with CCRF-CEM, 37.6 µM (inactive).
For `COc1cc(S(=O)(=O)Nc2ccc(-c3csc(/N=C\c4ccccc4O)n3)cc2)ccc1Cl`, the GI50 in the test on NCI/ADR-RES is > 100 µM (inactive); in the test with NCI-H23, 52.7 µM (inactive); in the test with OVCAR-3 it was 28.5 µM (inactive); in the test on SK-MEL-5, 70.5 µM (inactive); in the test with OVCAR-4, 44.9 µM (inactive); in the test on RXF 393 it was 35.6 µM (inactive). Further, the GI50 in the test on SK-MEL-2 is 29.2 µM (inactive); with Malme-3M it was 39.3 µM (inactive); with SR, 31.6 µM (inactive); in the test on HOP-92, > 100 µM (inactive); in the test on HOP-62, 65.3 µM (inactive); in the test on HCT-15, 51.4 µM. For the same compound, the GI50 is 55.2 µM (inactive) with SNB-75; 43.1 µM (inactive) with HCT-116; 37.8 µM (inactive) in the test on NCI-H522; 37.8 µM (inactive) with SW-620; 22.3 µM (inactive) in the test with CCRF-CEM.
In the case of `CC(=O)Oc1c(C)c2c(O)c3c1C1=C(OCOC1=C(C)C3=O)/C(C)=C/C(C)(O)C(O)C(C)C(O)C1C(=O)OC(C(C)C1O)C(C)(O)/C=C\C=C(C)C(=O)N2` (configuration not stated), the GI50 with NCI/ADR-RES is 78.3 µM (inactive); with U-251 it was 39.7 µM (inactive); with NCI-H23, 50.5 µM (inactive); in the test on OVCAR-3, 43.3 µM (inactive); in the test on SK-MEL-5, 32.4 µM (inactive); in the test with RXF 393, 18.5 µM (inactive). For the same compound, the GI50 is 34.4 µM (inactive) in the test on SK-MEL-2; 41.9 µM (inactive) with Malme-3M; 43.3 µM (inactive) in the test on SR; 20.7 µM (inactive) in the test on HOP-92; 19.2 µM (inactive) with HOP-62; 48.9 µM in the test on HCT-15. Further, the GI50 is 24 µM (inactive) with SNB-75; 57.1 µM (inactive) in the test on HCT-116; 49.1 µM (inactive) with NCI-H522; 63 µM (inactive) with SW-620; 21.5 µM (inactive) in the test on CCRF-CEM.
As to `O=C(O)CCC(N/N=N/c1ccc(-c2nc3ccccc3[nH]2)cc1)C(=O)O` (configuration not stated), the GI50 with NCI/ADR-RES was 27.8 µM (inactive); in the test with U-251 it was 43.7 µM (inactive); in the test with NCI-H23 it was 71.3 µM (inactive); with OVCAR-3 it was 30.3 µM (inactive); in the test with SK-MEL-5, 66.5 µM (inactive); in the test on OVCAR-4, 66.5 µM (inactive). Also, the GI50 in the test on RXF 393 was 40.9 µM (inactive); in the test on SK-MEL-2, 56.6 µM (inactive); in the test on SR it was 29.7 µM (inactive); in the test on HOP-92 it was 36.1 µM (inactive); with HOP-62, 48.8 µM (inactive); in the test on HCT-15, 34 µM. Moreover, the GI50 was 59.2 µM (inactive) with SNB-75; 70.8 µM (inactive) in the test on HCT-116; > 100 µM (inactive) in the test with TK-10; > 100 µM (inactive) with NCI-H522; > 100 µM (inactive) with SW-620; 15 µM (inactive) with CCRF-CEM.
For the compound `C/C=C\C(CC(=O)O)CC(=O)NCCC1CN(S(=O)(=O)C(F)(F)F)c2ccccc21` (configuration not stated), the GI50 with NCI/ADR-RES, with U-251, in the test with NCI-H23, with OVCAR-3, in the test with SK-MEL-5 and with OVCAR-4 was > 100 µM (inactive) each time. The GI50 in the test on RXF 393, in the test on SK-MEL-2, with Malme-3M, in the test on SR, with HOP-92 and in the test with HOP-62 was > 100 µM (inactive) in each case. Moreover, the GI50 in the test on HCT-15 was > 100 µM; with SNB-75, > 100 µM (inactive); with HCT-116, > 100 µM (inactive); with NCI-H522, > 100 µM (inactive); in the test on SW-620, > 100 µM (inactive); in the test with CCRF-CEM, > 100 µM (inactive).
